# From patent US20130123358A1, “Metabolic Benefits to Butyrate as a Chronic Diet Supplement” (priority 2009, published 2013)
# Columns and labels:
# [1] = system: skeletal muscle mitochondrial function; test: Fatty acid oxidation and gene expression in skeletal muscle; format: in vivo, mouse; details: butyrate 5% w/w in HFD 13 weeks
# Method: Total RNA was extracted from frozen tissues (kept at −80° C.) using Tri-Reagent (T9424, Sigma) as described elsewhere (16). Taqman RT-PCR primer and probe were used to determine mRNA for PGC-1α (Mm00447183_m1), UCP-1 (Mm00494069_m1), PPARδ (Mm01305434_m1) and CPT1b (Mm00487200_m1). The reagents were purchased from Applied Biosystems (Foster City, Calif.). Mouse ribosome 18S rRNA_s1 (without intron-exon junction) was used as an internal control. Reaction was conducted with 7900 HT Fast real time PCR System (Applied Biosystems, Foster City, Calif.).
# Mitochondrial function was examined in the skeletal muscle tissue and L6 muscle cells under butyrate treatment. Fatty acid oxidation was monitored in the […] with ^14C-labeled palmitic acid.
# Vastus laterais muscle and blood samples were collected from mice at 13 weeks on HFD (18 weeks in age) and examined for fatty acid oxidation, gene expression, and blood lipids. FIG. 7A illustrates the fatty acid oxidation in muscle, measured as a fold change in ^14C-labeled CO2.
# In addition, relative fold change in mRNA was used to indicate gene expression of PGC-1α target genes, such as CPT-1b (carnitine palmitoyltransferase-1b) and COX-I (cytochrome c oxidase I), and of the nuclear receptor PPARδ. In FIG. 7C, mitochondrial DNA of COX I was determined by Sybr green RT-PCR. The fatty acid oxidation was associated with expression of PGC-1α target genes, such as CPT-1b (carnitine palmitoyltransferase-1b) and COX-I (cytochrome c oxidase I) (9). Expression of these two genes was increased in the skeletal muscle of butyrate-treated mice (FIGS. 7B and 7C). The nuclear receptor PPARδ promotes fatty acids oxidation in skeletal muscle (29).
# [2] = system: skeletal muscle (vastus laterais, gastrocnemius, soleus); test: Skeletal muscle fiber type and immunoblot; format: in vivo, mouse; details: butyrate 5% w/w in HFD 13 weeks
# Excerpt: Fresh fat and muscles were collected and frozen in liquid nitrogen. The whole cell lysate protein was extract in lysis buffer with sonication and analyzed in western blot as described elsewhere (16). Antibodies were used in study of myoglobin (sc-25607, Santa Cruz), PGC-1 (sc-13068, Santa Cruz), Tubulin (ab7291, Abcam), myosin (M8421, Sigma), pAMPK (Thr 172, #2531, Cell signaling) and p-p38 (sc-7975, Santa Cruz). To detect multiple signals from one membrane, the membrane was stripped with a stripping buffer. Intensity of the immunoblot signal was quantified using a computer program, ImageJ 1.37v (NIH). The mean values of results from three experiments (6 mice each group) were presented. The antibodies to PGC-1α and UCP-1 were from Dr. Thomas Gettys at Pennington Biomedical Research Center, Baton Rouge, La.
# The fiber types in skeletal muscle were examined using two methods: succinate dehydrogenase (SDH) staining for […] and immunostaining of type I myosin heavy chain. In the SDH staining, mid-belly cross-sections of muscle were cut at 8 μm in a cryostat (−20° C.). After drying for 5 min at room temperature, the sections were incubated at 37° C. for 60 min in the incubation solution containing 6.5 mmol/l sodium phosphate monobasic, 43.5 mmol/l sodium phosphate biphasic, 0.6 mmol/l nitroblue tetrazolium (74032, Sigma), and 50 mmol/l sodium succinate (14160, Sigma). The sections were rinsed three times (30 sec/time) in 0.9% saline, 5 min in 15% ethanol and then mounted with aqueous mounting medium (Dakocyrtoma).
# Fresh skeletal muscle was collected, embedded in gum tragacanth mixed with OCT freezing matrix, and quickly frozen in isopentane cooled in liquid nitrogen. The tissue slides were obtained through serial cross-section cutting at 8 um thickness and processed with a standard procedure. The slides was blotted with a monoclonal antibody against the type I myosin heavy chain (M8421, Sigma) at 1:200 dilution. After being washed, the slide was incubated with a biotinylated secondary antibody (BA-2000). For PGC-1 staining, paraffin sections (8 μm) of BAT or inguinal fat on slides were deparaffinized and blotted with primary antibody of PGC-1 (sc-13067, Santa Cruz) at 1:200, the sections were washed and incubated with a biotinylated secondary antibody (rabbit IgG) in ABC kit. The slides were then incubated with the ABC elite reagent (PK-6101) and color reaction was performed using the DAB substrate kit (SK-4100) for myosin I and AEC substrate kit (AEC101, Sigma) for PGC-1a according to instructions by the manufacturers.
# To look for oxidative fiber in skeletal muscle, the vastus laterais muscle was isolated from mice that were fed on HFD for 13 weeks. […] A fiber type analysis was conducted in the vastus laterais, gastrocnemius (rich in glycolytic fibers) and soleus (rich in oxidative fiber). Serial cryostat sections of muscle were made from vastus lateralis, gastrocnemius (gastr.) and soleus muscle. The slides were stained with antibody against Type I myosin heavy chain for oxidative fibers. The ratio of type I fibers were increased in all of the skeletal muscle of butyrate-treated mice (data not shown). Succinate dehydrogenase staining of oxidative fibers was done on serial cryostat sections of the vastus lateralis and gastrocnemius (gastr.) muscle.
# To quantify the amount of protein of type 1 myosin heavy chain and PGC-1α, whole cell lysates were prepared from muscle tissues and analyzed in an immunoblot. Signals for PGC-1α, type I myosin heavy chain (Myosin), myoglobin, phospho-AMPK and phospho-p38 (p-p38) were blotted with specific antibodies. Relative signal strength was quantified for each band and expressed in FIG. 5B. The results are the mean±SE (n=8 mice). *P<0.01, ** P<0.001 (vs. control). […] A mean value of each protein was presented in the bar figure in FIG. 5B.
# AMPK and p38 activities were examined by their phosphorylation status. […]
smiles,measurement,setting,value
CCCC(=O)[O-].[Na+] [sodium butyrate],"fatty acid oxidation in muscle, increase in 14C-labeled CO2",[1]; 14C-labeled palmitic acid,200%
same,CPT-1b expression in skeletal muscle,[1]; mRNA,increased
same,PPARδ expression in skeletal muscle,[1]; mRNA,also increased
same,COX-I expression in skeletal muscle,[1]; mitochondrial DNA by Sybr green RT-PCR,increased
same,AMPK phosphorylation in muscle lysate,[2]; immunoblot,increase in their phosphorylation
same,PGC-1α protein in muscle,[2]; immunoblot,significant increase
same,myoglobin protein in muscle,[2]; immunoblot,also increased
same,p38 phosphorylation in muscle lysate,[2]; immunoblot,increase in their phosphorylation
same,type 1 myosin heavy chain protein in muscle,[2]; immunoblot,significant increase
same,Type I fibers (succinate dehydrogenase staining),[2]; vastus lateralis and gastrocnemius,increase in Type I fibers
same,ratio of type I fibers (Type I myosin heavy chain immunostaining),"[2]; vastus lateralis, gastrocnemius, soleus",increased
